Laboratory results taken from patent US12312359B2 (Vitae Pharmaceuticals, LLC, priority 2016, dated 2025).

Columns and labels:
[1] = target: T1, biotinylated wild-type menin and MLL-AF9 fusion protein (menin/MLL binding) (Homo sapiens, UniProt O00255); assay: Assay 1: menin/MLL binding AlphaLISA assay, wild-type menin; details: Table 30; column head does not say wild-type or mutated menin
T1 construct: made in house; host or cells: menin: E. coli; MLL-AF9-FLAG: HEK293 cells, used as cleared lysate
T1 sequence (O00255 1-610): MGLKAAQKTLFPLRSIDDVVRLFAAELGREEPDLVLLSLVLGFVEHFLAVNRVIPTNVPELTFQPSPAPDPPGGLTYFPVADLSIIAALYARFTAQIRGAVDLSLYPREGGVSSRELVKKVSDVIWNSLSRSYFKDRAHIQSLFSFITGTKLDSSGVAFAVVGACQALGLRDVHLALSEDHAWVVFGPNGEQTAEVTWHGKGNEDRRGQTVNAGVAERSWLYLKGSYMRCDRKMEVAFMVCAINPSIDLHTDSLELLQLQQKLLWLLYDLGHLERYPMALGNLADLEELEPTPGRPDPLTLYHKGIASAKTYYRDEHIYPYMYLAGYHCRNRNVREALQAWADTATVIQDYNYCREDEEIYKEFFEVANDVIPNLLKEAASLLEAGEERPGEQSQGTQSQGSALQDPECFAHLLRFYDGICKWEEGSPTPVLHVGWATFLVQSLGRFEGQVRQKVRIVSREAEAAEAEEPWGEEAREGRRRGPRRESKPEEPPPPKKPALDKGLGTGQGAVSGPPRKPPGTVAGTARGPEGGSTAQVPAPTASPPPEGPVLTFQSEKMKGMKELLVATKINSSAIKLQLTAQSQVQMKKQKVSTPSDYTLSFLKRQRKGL
Summary of the method: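 Compound was preincubated 30 min at room temperature with biotinylated menin (5 nM) and MLL-AF9-FLAG lysate from HEK293 cells, pH 7.4 buffer with 5% DMSO and DTT. Bead-based Alpha signal after 60 min with streptavidin donor and anti-FLAG acceptor beads; four-parameter logistic fit gave IC50.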

[2] = test system: human acute monocytic leukemia cell line MV-4-11; assay: Assay 2: cell proliferation assay (ATP quantitation, CellTiter-Glo), MV-4-11; assay type: cell-based; details: MV-4-11 cells
Summary of the method: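 Read-out is CellTiter-Glo luminescence quantifying ATP. Compound exposure lasted 72 h at 37° C., 5% CO2, with 1.67×10^4 MV-4-11 cells per well in 10% FBS medium, alongside HL-60 toxicity-control cells.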

SMILES: CC(C)N(C)C(=O)c1cc(F)ccc1Oc1cncnc1N1CCC2(CCN(Cc3ccc4c(c3)NC(=O)CO4)C2)C1 (centres unmarked) [Example 210, 5-fluoro-N-isopropyl-N-methyl-2-((4-(7-((3-oxo-3,4-dihydro-2H-benzo[b][1,4]oxazin-6-yl)methyl)-2,7-diazaspiro[4.4]nonan-2-yl)pyrimidin-5-yl)oxy)benzamide]
- IC50 [1]: < 0.1 µM
- EC50 ([2]; Homo sapiens, MV4-11, 72 h): 0.1 to 1 µM

SMILES: Cc1ncc(Oc2ccc(F)cc2-c2ccnn2C(C)C)c(N2CCC3(CCN(Cc4ccc5[nH]c(=O)[nH]c5c4)C3)C2)n1 (centres unmarked) [Example 126, 5-((7-(5-(4-fluoro-2-(1-isopropyl-1H-pyrazol-5-yl)phenoxy)-2-methylpyrimidin-4-yl)-2,7-diazaspiro[4.4]nonan-2-yl)methyl)-1,3-dihydro-2H-benzo[d]imidazol-2-one]
- IC50 [1]: < 0.1 µM
- EC50 ([2]; Homo sapiens, MV4-11, 72 h): 0.1 to 1 µM

SMILES: CC(C)N(C)C(=O)c1cc(F)ccc1Oc1cncnc1N1CCC2(CCN(Cc3ccc4cn[nH]c4c3)C2)C1 (centres unmarked) [Example 145, 2-((4-(7-((1H-indazol-6-yl)methyl)-2,7-diazaspiro[4.4]nonan-2-yl)pyrimidin-5-yl)oxy)-5-fluoro-N-isopropyl-N-methylbenzamide]
- IC50 [1]: < 0.1 µM
- EC50 ([2]; Homo sapiens, MV4-11, 72 h): 0.1 to 1 µM

SMILES: CC(C)c1ncncc1-c1cc(F)ccc1Oc1cnccc1N1CCC2(CCN(Cc3ccc4[nH]c(=O)[nH]c4c3)C2)C1 (centres unmarked) [Example 28, 5-((7-(3-(4-fluoro-2-(4-isopropylpyrimidin-5-yl)phenoxy)pyridin-4-yl)-2,7-diazaspiro[4.4]nonan-2-yl)methyl)-1,3-dihydro-2H-benzo[d]imidazol-2-one]
- IC50 [1]: < 0.1 µM
- EC50 ([2]; Homo sapiens, MV4-11, 72 h): < 0.1 µM

SMILES: CC(C)n1nccc1-c1cc(F)ccc1Oc1cncnc1N1CC2(CC(NCc3ccc(C#N)cc3)CO2)C1 (centres unmarked) [Example 233, 4-(((2-(5-(4-fluoro-2-(1-isopropyl-1H-pyrazol-5-yl)phenoxy)pyrimidin-4-yl)-5-oxa-2-azaspiro[3.4]octan-7-yl)amino)methyl) benzonitrile]
- IC50 [1]: < 0.1 µM
- EC50 ([2]; Homo sapiens, MV4-11, 72 h): 0.1 to 1 µM

SMILES: CC(C)N(C(=O)c1cc(F)ccc1Nc1cncnc1N1CCC2(CC1)CN(C1CCC(NS(C)(=O)=O)CC1)C2)C(C)C (single isomer, unassigned) [Example 248B, 5-fluoro-N,N-diisopropyl-2-((4-(2-(4-(methylsulfonamido)cyclohexyl)-2,7-diazaspiro[3.5]nonan-7-yl)pyrimidin-5-yl)amino) benzamide]
- IC50 [1]: < 0.1 µM
- EC50 ([2]; 72 h): 0.1 to 1 µM

SMILES: CC(C)c1ncncc1-c1cc(F)ccc1Oc1cncnc1N1CC2(CC(NCC34CC(C#N)(C3)C4)C2)C1 [Example 118, 3-(((2-(5-(4-fluoro-2-(4-isopropylpyrimidin-5-yl)phenoxy)pyrimidin-4-yl)-2-azaspiro[3.3]heptan-6-yl)amino)methyl)bi-cyclo[1.1.1]pentane-1-carbonitrile]
- IC50 [1]: < 0.1 µM
- EC50 ([2]; Homo sapiens, MV4-11, 72 h): 0.1 to 1 µM

SMILES: CC(C)N(C)C(=O)c1cc(F)ccc1Oc1cncnc1N1CC2(CCN(C[C@H]3CC[C@H](NC(=O)OC(C)(C)C)CC3)CC2)C1 [Example 94, tert-butyl ((1r,4r)-4-((2-(5-(4-fluoro-2-(isopropyl(methyl)carbamoyl)phenoxy)pyrimidin-4-yl)-2,7-diazaspiro[3.5]nonan-7-yl)methyl)cyclohexyl) carbamate]
- IC50 [1]: < 0.1 µM
- EC50 ([2]; Homo sapiens, MV4-11, 72 h): 0.1 to 1 µM

SMILES: CC(C)c1ccccc1-c1cc(F)ccc1Oc1cncnc1N1CC2(CN(CC3CCOCC3)C2)C1 [Example 237A, 2-(5-((5-fluoro-2′-isopropyl-[1,1′-biphenyl]-2-yl)oxy)pyrimidin-4-yl)-6-((tetrahydro-2H-pyran-4-yl)methyl)-2,6-diazaspiro[3.3] heptane]
- IC50 [1]: < 0.1 µM
- EC50 ([2]; Homo sapiens, MV4-11, 72 h): < 0.1 µM

SMILES: CC(C)C(=O)N(CCO)c1cc(F)ccc1Oc1cncnc1N1CCC2(CCN(Cc3ccc4[nH]c(=O)[nH]c4c3)C2)C1 (centres unmarked) [Example 185, N-(5-fluoro-2-((4-(7-((2-oxo-2,3-dihydro-1H-benzo[d]imidazol-5-yl)methyl)-2,7-diazaspiro[4.4]nonan-2-yl)pyrimidin-5-yl)oxy)phenyl)-N-(2-hydroxyethyl)iso-butyramide]
- IC50 [1]: < 0.1 µM
- EC50 ([2]; Homo sapiens, MV4-11, 72 h): 0.1 to 1 µM

SMILES: Cn1c(-c2cc(F)ccc2Oc2cncnc2N2CCC3(CCN(Cc4ccc5[nH]c(=O)[nH]c5c4)C3)C2)c(C2CC2)ccc1=O (racemic) [Example 29, 5-((7-(5-(2-(3-cyclopropyl-1-methyl-6-oxo-1,6-dihydropyridin-2-yl)-4-fluorophenoxy)pyrimidin-4-yl)-2,7-diazaspiro[4.4]nonan-2-yl)methyl)-1,3-dihydro-2H-benzo[d]imidazol-2-one]
- IC50 [1]: < 0.1 µM
- EC50 ([2]; Homo sapiens, MV4-11, 72 h): < 0.1 µM

SMILES: CC(C)c1ncncc1-c1cc(F)ccc1Oc1cncnc1N1CC2(CC(NCc3ccccc3)CO2)C1 (centres unmarked) [Example 159, N-benzyl-2-(5-(4-fluoro-2-(4-isopropylpyrimidin-5-yl)phenoxy)pyrimidin-4-yl)-5-oxa-2-azaspiro[3.4]octan-7-amine]
- IC50 [1]: < 0.1 µM
- EC50 ([2]; Homo sapiens, MV4-11, 72 h): 0.1 to 1 µM

SMILES: CC(C)c1ccccc1-c1cc(F)ccc1Oc1cncnc1N1CC2(CC(NCc3ccc(C#N)cc3)CO2)C1 (centres unmarked) [Example 19, 4-(((2-(5-((5-fluoro-2′-isopropyl-[1,1′-biphenyl]-2-yl)oxy)pyrimidin-4-yl)-5-oxa-2-azaspiro[3.4]octan-7-yl)amino)methyl)benzonitrile]
- IC50 [1]: < 0.1 µM
- EC50 ([2]; Homo sapiens, MV4-11, 72 h): 0.1 to 1 µM

SMILES: CC(=O)N[C@H]1CC[C@H](CN2CCC3(CCN(c4ncncc4Oc4ccc(F)cc4-c4ccc(C#N)cc4C4CC4)C3)C2)CC1 (some centres unmarked) [Example 188, N-((1r,4r)-4-((7-(5-((4′-cyano-2′-cyclopropyl-5-fluoro-[1,1′-biphenyl]-2-yl)oxy)pyrimidin-4-yl)-2,7-diazaspiro[4.4]nonan-2-yl)methyl)cyclohexyl) acetamide]
- IC50 [1]: < 0.1 µM
- EC50 ([2]; Homo sapiens, MV4-11, 72 h): 0.1 to 1 µM

SMILES: CC(C)c1ncncc1-c1cc(F)ccc1Oc1cncnc1N1CC2(CC(NCC3CCCCC3)CO2)C1 (centres unmarked) [Example 184, N-(cyclohexylmethyl)-2-(5-(4-fluoro-2-(4-isopropylpyrimidin-5-yl)phenoxy)pyrimidin-4-yl)-5-oxa-2-azaspiro[3.4]octan-7-amine]
- IC50 [1]: < 0.1 µM
- EC50 ([2]; Homo sapiens, MV4-11, 72 h): 0.1 to 1 µM

SMILES: CCC(O)(CC)c1cc(F)ccc1Oc1cncnc1N1CCC2(CCN(Cc3ccc4[nH]c(=O)[nH]c4c3)C2)C1 (centres unmarked) [Example 34, 5-((7-(5-(4-fluoro-2-(3-hydroxypentan-3-yl)phenoxy)pyrimidin-4-yl)-2,7-diazaspiro[4.4]nonan-2-yl)methyl)-1,3-dihydro-2H-benzo[d]imidazol-2-one]
- IC50 [1]: < 0.1 µM
- EC50 ([2]; Homo sapiens, MV4-11, 72 h): ≥ 1 µM

SMILES: N#Cc1ccc(CCN2CC3(C2)CN(c2ncncc2Oc2ccc(F)cc2-c2ccc(C#N)cc2C2CC2)C3)cc1 [Example 203, 2′-((4-(6-(4-cyanophenethyl)-2,6-diazaspiro[3.3]heptan-2-yl)pyrimidin-5-yl)oxy)-2-cyclopropyl-5′-fluoro-[1,1′-biphenyl]-4-carbonitrile]
- IC50 [1]: < 0.1 µM
- EC50 ([2]; Homo sapiens, MV4-11, 72 h): ≥ 1 µM

SMILES: CC(=O)NC(c1cc(F)ccc1Oc1cncnc1N1CCC2(CCN(Cc3ccc4[nH]c(=O)[nH]c4c3)C2)C1)C1CCCC1 (centres unmarked) [Example 9, N-(cyclopentyl(5-fluoro-2-((4-(7-((2-oxo-2,3-dihydro-1H-benzo[d]imidazol-5-yl)methyl)-2,7-diazaspiro[4.4]nonan-2-yl)pyrimidin-5-yl)oxy)phenyl)methyl)acetamide]
- IC50 [1]: < 0.1 µM
- EC50 ([2]; Homo sapiens, MV4-11, 72 h): ≥ 1 µM

SMILES: CC(C)N(C(=O)c1cc(F)ccc1Oc1cncnc1N1CC2(CCN(CC3CCC(O)CC3)CC2)C1)C(C)C (centres unmarked) [Example 98, 5-fluoro-2-((4-(7-((4-hydroxycyclohexyl)methyl)-2,7-diazaspiro[3.5]nonan-2-yl)pyrimidin-5-yl)oxy)-N,N-diisopropylbenzamide]
- IC50 [1]: < 0.1 µM
- EC50 ([2]; Homo sapiens, MV4-11, 72 h): 0.1 to 1 µM

SMILES: CC(C)c1ccccc1-c1cc(F)ccc1Oc1cncnc1N1CC2(CN(C(=O)Cc3ccc(S(C)(=O)=O)cc3)C2)C1 [Example 229, 1-(6-(5-((5-fluoro-2′-isopropyl-[1,1′-biphenyl]-2-yl)oxy)pyrimidin-4-yl)-2,6-diazaspiro[3.3]heptan-2-yl)-2-(4-(methylsulfonyl)phenyl)ethan-1-one]
- IC50 [1]: < 0.1 µM
- EC50 ([2]; Homo sapiens, MV4-11, 72 h): 0.1 to 1 µM

SMILES: CC(C)N(C(=O)c1cc(F)ccc1Oc1cncnc1N1CC2(CCN(CC3CCC4(CC3)OCCO4)CC2)C1)C(C)C [Example 100, 2-((4-(7-((1,4-dioxaspiro[4.5]decan-8-yl)methyl)-2,7-diazaspiro[3.5]nonan-2-yl)pyrimidin-5-yl)oxy)-5-fluoro-N,N-diisopropylbenzamide]
- IC50 [1]: < 0.1 µM
- EC50 ([2]; Homo sapiens, MV4-11, 72 h): 0.1 to 1 µM

SMILES: O=C(c1cc(F)ccc1Oc1cncnc1N1CCC2(CCN(Cc3ccc4[nH]c(=O)[nH]c4c3)C2)C1)N1CCCC1 (centres unmarked) [Example 154, 5-((7-(5-(4-fluoro-2-(pyrrolidine-1-carbonyl)phenoxy)pyrimidin-4-yl)-2,7-diazaspiro [4.4]nonan-2-yl)methyl)-1,3-dihydro-2H-benzo[d]imidazol-2-one]
- IC50 [1]: < 0.1 µM
- EC50 ([2]; Homo sapiens, MV4-11, 72 h): 0.1 to 1 µM
